Measurements as given in US6759547B1, “5,6,7,8-tetrahydronaphthalen-2-yl 2,6-difluoroheptatrienoic acid derivatives having serum glucose reducing activity” (Allergan, Inc., priority 2003, dated 2004).

Legend:
[1] = tested on: female diabetic db/db mice; test: serum glucose, triglyceride and thyroxine levels in db/db mice; format: in vivo
Method: An assay described below tests the effect of compounds of the invention on serum glucose, tryglyceride and thyroxine levels in female 9-10 weeks old db/db mice.
Blood samples (70 μl) were taken by orbital bleeding at 11:00 AM on day 0 (pre-treatment), day 3, and day 6. On day 7, a blood sample (700 μl) was taken at 11:00 AM and the animals were sacrificed. Glucose, triglyceride and thyroxine (T4) levels were determined on a Boehringer Manheim Hatachi Clinical Chemistry Analyzer using standard protocols provided by the manufacturer and reagents that were supplied in commercially available kits (glucose and T4; Boehringer Manheim; triglycerides: Roche Diagnostics). Seven animals were treated in each group.

RXRα = target: T1, RXRα (Homo sapiens, UniProt P19793); test: holoreceptor transactivation assay, RXRα; format: cell-based; settings: efficacy as a percentage compared to the standard compound
T1 construct: expressed in transfected cells
T1 sequence (P19793 1-462): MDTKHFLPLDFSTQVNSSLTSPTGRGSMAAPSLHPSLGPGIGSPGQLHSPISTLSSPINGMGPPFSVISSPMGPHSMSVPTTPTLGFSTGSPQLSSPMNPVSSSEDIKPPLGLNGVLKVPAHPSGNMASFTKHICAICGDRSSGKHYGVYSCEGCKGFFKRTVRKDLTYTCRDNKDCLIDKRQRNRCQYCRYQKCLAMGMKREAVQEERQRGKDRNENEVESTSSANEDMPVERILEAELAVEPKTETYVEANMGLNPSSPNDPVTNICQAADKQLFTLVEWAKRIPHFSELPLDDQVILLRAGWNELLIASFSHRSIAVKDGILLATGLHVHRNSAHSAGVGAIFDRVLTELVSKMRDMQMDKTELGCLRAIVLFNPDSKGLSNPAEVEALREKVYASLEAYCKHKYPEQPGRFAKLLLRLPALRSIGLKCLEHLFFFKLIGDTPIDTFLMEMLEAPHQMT
From the text: (§1) Particularly, the transactivation data pertaining to activation of the RAR receptors were obtained in the chimeric assay, and the transactivation data pertaining to the activation of RXR receptors were obtained in the holoreceptor assay.

RXRβ = target: T2, RXRβ (Homo sapiens, UniProt P28702); test: holoreceptor transactivation assay, RXRβ; format: cell-based
T2 construct: expressed in transfected cells
T2 sequence (P28702 1-533): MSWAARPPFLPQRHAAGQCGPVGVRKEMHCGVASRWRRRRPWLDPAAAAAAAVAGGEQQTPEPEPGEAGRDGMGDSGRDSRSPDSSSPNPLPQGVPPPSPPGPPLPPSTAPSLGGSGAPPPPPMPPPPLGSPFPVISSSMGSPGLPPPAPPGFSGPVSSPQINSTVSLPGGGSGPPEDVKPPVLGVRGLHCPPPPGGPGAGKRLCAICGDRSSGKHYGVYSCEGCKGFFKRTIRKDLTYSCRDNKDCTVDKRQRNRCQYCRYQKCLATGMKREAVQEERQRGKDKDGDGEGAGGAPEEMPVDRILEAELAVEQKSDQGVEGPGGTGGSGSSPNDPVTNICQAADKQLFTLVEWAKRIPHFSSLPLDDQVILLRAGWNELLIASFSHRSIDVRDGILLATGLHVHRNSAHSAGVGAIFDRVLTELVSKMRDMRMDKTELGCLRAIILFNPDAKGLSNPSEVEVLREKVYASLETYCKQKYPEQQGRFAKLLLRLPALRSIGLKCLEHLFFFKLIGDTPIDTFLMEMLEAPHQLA
From the text: as §1

[2] = female db/db mice, day 0 (pre-treatment), groups: standard compound 5 mg/kg, Compound 27 50 mg/kg
[3] = female db/db mice, oral gavage daily, standard compound 5 mg/kg, Compound 27 50 mg/kg

Structure (SMILES): CC(/C=C/[C@@H]1C[C@]1(C)c1ccc2c(c1)C(C)(C)CCC2(C)C)=C\C(=O)O [Standard compound, (2E,4E,1'S,2'S)-3-methyl-5-[2′-methyl-2′-(5,5,8,8-tetramethyl-5,6,7,8-tetrahydro-naphthalen-2-yl)-cyclopropyl]-penta-2,4-dienoic acid]
- effect on serum thyroxine levels ([1]; diabetic mammals (db/db mice), in words): undesirable side effect of reducing serum thyroxine levels
- Glucose Day 0 [1, 2]: 356 mg/dL
- Triglycerides Day 0 [1, 2]: 152 mg/dL
- T4 Day 7 ([1]; female db/db mice, oral gavage daily for seven days, standard compound 5 mg/kg, Compound 27 50 mg/kg): 2.6 ± 0.6 µg/dL
- Glucose Day 3, 3 h [1, 3]: 249 mg/dL
- Glucose Day 6, 3 h [1, 3]: 239 mg/dL
- Triglycerides Day 3, 3 h [1, 3]: 137 mg/dL
- RXR Trans. efficacy α (RXRα): 100%
- RXR Trans. efficacy β (RXRβ; efficacy as a percentage compared to the standard compound): 100%
- efficacy in activating RXRβ compared with RXRα and RXRγ (RXRβ; transactivation, comparison of subtypes): approximately equally efficacious in activating the RXRα, RXRβ and RXRγ subtypes
